The numbers were not newly measured in patent US20190263927A1, “COMBINATION OF A PD-1 ANTAGONIST AND ERIBULIN FOR TREATING UROTHELIAL CANCER” (Merck Sharp & Dohme Corp., priority 2016, published 2019), which cites them from elsewhere.

The test system of the data set is patients with metastatic UC (mUC). The note with it: eribulin monotherapy; patients with metastatic/advanced UC; NCI Protocol No. 7435.

Regarding `C=C1C[C@@H]2CC[C@@]34C[C@H]5O[C@H]6[C@@H](O3)[C@H]3O[C@H](CC[C@@H]3O[C@H]6[C@H]5O4)CC(=O)C[C@@H]3[C@@H](OC)[C@@H](C[C@H](O)CN)O[C@H]3C[C@H]3O[C@@H](CC[C@@H]1O2)C[C@@H](C)C3=C` [Eribulin], the “clinical benefit for treatment of patients with mUC” value is listed as “provide clinical benefit”.
